Consider 14 compounds from PubChem BioAssay (NCI).

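Grown in 96-well plates, cells were treated for 48 hours with each compound at five concentrations. Insufficient inhibition: endpoint recorded as highest concentration tested. Abbreviation: GI50, concentration required for 50% inhibition of growth. At the TGI there is no net growth.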

Some test systems named below: SN12C renal; NCI-H460 lung; SF-268 CNS; OVCAR-3 ovarian; HOP-62 NSCLC; SF-295 CNS; HT29 colon; OVCAR-4 ovarian; NCI/ADR-RES ovarian; HOP-92 NSCLC.
Common to all, as to experiment: inhibition of tumour cell growth, NCI panel, 48 h

On to `COC(=O)c1c(C(=O)OC)c2ccccn2c1-c1cc(OC)c(Br)c(=O)o1`, for which the TGI in the experiment with SN12C renal, in the experiment on NCI-H460 lung, with SF-268 CNS, in the experiment on OVCAR-3 ovarian, with HOP-62 NSCLC and with SF-295 CNS was greater than 100 µM throughout. The TGI with HT29 colon, in the experiment on OVCAR-4 ovarian and in the experiment with NCI/ADR-RES ovarian was greater than 100 µM in each case.

Consider `COc1cc2c3cc1Oc1c(O)c(OC)cc4c1C(Cc1ccc(O)c(c1)Oc1ccc(cc1)CC3N(C)CC2)N(C)CC4` (centres undefined), for which the TGI in the experiment with SN12C renal came to 28.6 µM; in the experiment with NCI-H460 lung, 28.4 µM; in the experiment on SF-268 CNS it was 31.9 µM; in the experiment with OVCAR-3 ovarian it was 30.5 µM; with HOP-62 NSCLC, 33.8 µM; in the experiment on SF-295 CNS, 29.7 µM. Moreover, the TGI in the experiment with HT29 colon is 18.9 µM; in the experiment with HOP-92 NSCLC, 24.3 µM; with OVCAR-4 ovarian, 28.2 µM.

Take `Cc1cc(S(=O)(=O)N2CCNNC2=O)c(S)cc1Cl`: the TGI in the experiment with SN12C renal, in the experiment on NCI-H460 lung, in the experiment with SF-268 CNS, in the experiment on OVCAR-3 ovarian, with SF-295 CNS and with HOP-92 NSCLC was greater than 100 µM in each case. Further, the TGI with OVCAR-4 ovarian and with NCI/ADR-RES ovarian was greater than 100 µM in each case.

As for `COC(=O)C1CCC(=O)N1C(c1cc(OC)c(OC)c(OC)c1)c1cc(OC)c(OC)c(OC)c1` (centres undefined), the TGI in the experiment on SN12C renal, in the experiment on NCI-H460 lung, in the experiment on SF-268 CNS, in the experiment on OVCAR-3 ovarian, in the experiment with HOP-62 NSCLC and in the experiment with SF-295 CNS was greater than 100 µM in each case. The TGI in the experiment on HT29 colon and with HOP-92 NSCLC was greater than 100 µM throughout.

For `COc1ccc2c3c(Nc4cccc(/C(C)=N\O)c4)[nH]c4ccccc4c-3c(N=O)c2c1`, the GI50 in the experiment on SN12C renal was 30 µM; with NCI-H460 lung it was 33.6 µM; with SF-268 CNS it was greater than 100 µM; in the experiment with OVCAR-3 ovarian, 33.2 µM; with HOP-62 NSCLC, 37.9 µM; in the experiment on SF-295 CNS, greater than 100 µM. In addition, the GI50 in the experiment with HT29 colon was 18.3 µM; with OVCAR-4 ovarian, 29 µM; in the experiment on NCI/ADR-RES ovarian it was 21.2 µM. Besides, the TGI was greater than 100 µM with SN12C renal; greater than 100 µM with NCI-H460 lung; greater than 100 µM in the experiment with SF-268 CNS; 88.2 µM in the experiment on OVCAR-3 ovarian; greater than 100 µM with HOP-62 NSCLC; greater than 100 µM in the experiment with SF-295 CNS. In addition, the TGI with HT29 colon was greater than 100 µM; in the experiment with OVCAR-4 ovarian, greater than 100 µM; in the experiment on NCI/ADR-RES ovarian, 96.9 µM.

Take `COc1ccc(/C(C)=N/NC(=O)c2ccncc2)c(OC)c1`: the TGI in the experiment on SN12C renal, in the experiment on NCI-H460 lung, in the experiment with SF-268 CNS, in the experiment on HOP-62 NSCLC, in the experiment on HOP-92 NSCLC and in the experiment on OVCAR-4 ovarian was greater than 10 µM each time. In the experiment on NCI/ADR-RES ovarian, this compound yielded a TGI greater than 10 µM.

Take `N#CCc1c(-c2ccccc2)n(S(=O)(=O)c2ccccc2)c2ccccc12`: the TGI in the experiment on NCI-H460 lung, in the experiment with SF-268 CNS, in the experiment with OVCAR-3 ovarian, in the experiment with HOP-62 NSCLC, in the experiment on SF-295 CNS and with HT29 colon was greater than 100 µM in each case. For the same compound, the TGI in the experiment with HOP-92 NSCLC and in the experiment with OVCAR-4 ovarian was greater than 100 µM in each case.

As to `COc1cc(OC)cc(-c2ccc(-c3ccc(C(=N)N)cn3)o2)c1`, the GI50 in the experiment on NCI-H460 lung is 1.63 µM; in the experiment with SF-268 CNS it was 1.86 µM; with OVCAR-3 ovarian, 1.89 µM; with SF-295 CNS, 1.86 µM; in the experiment with HOP-92 NSCLC, 1.42 µM; in the experiment with OVCAR-4 ovarian, 1.74 µM. Besides, the GI50 in the experiment with NCI/ADR-RES ovarian was 6.53 µM. The TGI in the experiment with NCI-H460 lung was 3.16 µM; in the experiment on SF-268 CNS, 3.62 µM; in the experiment with OVCAR-3 ovarian, 3.46 µM; in the experiment with SF-295 CNS, 3.46 µM; in the experiment with HOP-92 NSCLC it was 2.87 µM; in the experiment on OVCAR-4 ovarian, 3.46 µM. The compound further had a TGI in the experiment on NCI/ADR-RES ovarian of 38.5 µM.

Regarding `N#CC(N=Nc1ccccc1C(=O)O)C(N)=O` (centres undefined), the TGI in the experiment on SN12C renal, in the experiment on NCI-H460 lung, in the experiment with OVCAR-3 ovarian, in the experiment with HOP-62 NSCLC, in the experiment on SF-295 CNS and in the experiment on HT29 colon was greater than 100 µM in each case. The TGI with OVCAR-4 ovarian and in the experiment on NCI/ADR-RES ovarian was greater than 100 µM in each case.

As to `CCC(C)C(N)C(=O)NC(CC(N)=O)C(=O)NC(CC(C)C)C(=O)NC(CCCCN)C(=O)NC(C)C(=O)NC(CC(C)C)C(=O)NC(C)C(=O)NC(C)C(=O)NC(CC(C)C)C(=O)NC(C)C(=O)NC(CCCCN)C(=O)NC(CCCCN)C(=O)NC(C(=O)NC(CC(C)C)C(N)=O)C(C)CC` (centres undefined), the TGI with SN12C renal was 26.4 µM; with NCI-H460 lung, 28.9 µM; with SF-268 CNS it was 14.7 µM; in the experiment on OVCAR-3 ovarian it was 22.6 µM; in the experiment with HOP-62 NSCLC, 8.55 µM; in the experiment on SF-295 CNS, 35.3 µM. Also, the figures for the TGI with HT29 colon, in the experiment with HOP-92 NSCLC and in the experiment with OVCAR-4 ovarian were 35.9 µM, 5.38 µM and 31.9 µM, respectively.

For `CCCCn1c(CSc2ccc(Cl)cc2)c(C(=O)OCC)c2cc(OC)c(Br)cc21`, the TGI with SN12C renal, in the experiment on NCI-H460 lung, in the experiment on SF-268 CNS, in the experiment with OVCAR-3 ovarian, with HOP-62 NSCLC and in the experiment on SF-295 CNS was greater than 100 µM throughout. Also, the TGI in the experiment on OVCAR-4 ovarian and in the experiment on NCI/ADR-RES ovarian was greater than 100 µM each time.

Consider `Clc1cccc(-c2sc(-c3ccsc3)cc2Cc2ccsc2)c1`, for which the TGI in the experiment with SN12C renal, in the experiment with SF-268 CNS, in the experiment with HOP-62 NSCLC, in the experiment with SF-295 CNS, in the experiment with HT29 colon and in the experiment on HOP-92 NSCLC was greater than 10 µM throughout. The same compound displayed a TGI in the experiment with OVCAR-4 ovarian greater than 10 µM.

Take `CC(=O)Nc1ccc2nc(-c3ccccn3)c(-c3ccccn3)nc2c1`: the TGI in the experiment on SN12C renal, with NCI-H460 lung, in the experiment with SF-268 CNS, in the experiment with OVCAR-3 ovarian, with SF-295 CNS and in the experiment with HOP-92 NSCLC was greater than 100 µM each time. The TGI in the experiment with OVCAR-4 ovarian and in the experiment with NCI/ADR-RES ovarian was greater than 100 µM in each case.

For the compound `CCOC(=O)CC(c1ccccc1)C(C)(C(=O)OCC)C(=O)OCC` (centres undefined), the TGI with SN12C renal, with NCI-H460 lung, in the experiment with SF-268 CNS, with HOP-62 NSCLC, in the experiment on SF-295 CNS and in the experiment on HT29 colon was greater than 100 µM throughout. Moreover, the TGI in the experiment on OVCAR-4 ovarian and with NCI/ADR-RES ovarian was greater than 100 µM in each case.
